From US12509482B2, “3′-ketoglycoside compound for the slow release of a volatile alcohol” (GLYCOSCIENCE, S.L., priority 2020, dated 2025) come the findings set out here.

Type in all cases: physicochemical
Series [1] is described as follows: Example 28: release of methanol from methyl-β-3′-ketoglucuronide methyl ester, 0.1 M deuterated phosphate buffer, 10% D6-DMSO, 32° C. How it is done: In this example the rate of release of methanol from methyl (2R,3R,5S,6S)-3,5-dihydroxy-6-methoxy-4-oxotetrahydro-2H-pyran-2-carboxylate (methyl-β-3′-ketoglucuronide methyl ester) in D2O containing 10% D6-DMSO or in 0.1 M deuterated phosphate buffer solutions of differing pH containing 10% D6-DMSO or in D2O was determined.
(§1) 0.1 M of pH 5.8 and 7.4 stock buffered solutions of sodium dihydrogen phosphate and disodium hydrogen phosphate were prepared in deuterated water (D2O).
A stock solution of 20 mg of methyl-β-3′-ketoglucuronide methyl ester in 0.25 mL of D6-DMSO were prepared.
To two parallel reaction vials, where indicated in the reaction table below, was added 0.05 mL of the glycoside substrate solutions in D6-DMSO and 0.55 mL of low or high pH 0.1M phosphate buffer in D2O and the mixtures incubated by shaking at 32° C. After times indicated in table below, the mixtures where analysed by ^1H-NMR in a 400 MHz instrument.

A short description of series [2]: Example 20: release of (S)-α-terpineol from (S)-α-terpineol-O-β-D-3′-ketoglucopyranoside, 0.1 M deuterated phosphate buffer, 33% D6-DMSO, 32° C. On the procedure:
In this example the rate of release of (S)-α-terpineol from (2R,3R,5S)-3,5-dihydroxy-2-(hydroxymethyl)-6-((5-(2-hydroxypropan-2-yl)-2-methylcyclohexyl)oxy) tetrahydro-4H-pyran-4-one ((S)-α-terpineol-O-β-D-3′-ketoglucopyranoside) in 0.1 M deuterated phosphate buffer solutions of differing pH containing 33% D6-DMSO was determined.
as §1
A stock solution of 10 mg of (S)-α-terpineol-O-β-D-3′-ketoglucopyranoside in 0.5 mL of D6-DMSO were prepared.
To two parallel reaction vials, where indicated in the reaction table below, was added 0.20 mL of the glycoside substrate solutions in D6-DMSO and 0.40 mL of low or high pH 0.1M phosphate buffer in D2O and the mixtures incubated by shaking at 32° C. After times indicated in table below, the mixtures where analysed by ^1H-NMR in a 400 MHz instrument.

Series [3] can be described thus: Example 29: release of phenol from phenyl-O-β-D-3′-keto-6′-sulphatoglucopyranoside pyridinium salt, 0.1 M deuterated phosphate buffer, 15% D6-DMSO, 32° C. How it is done:
In this example the rate of release of phenol from ((2R,3R,5S,6S)-3,5-dihydroxy-4-oxo-6-phenoxytetrahydro-2H-pyran-2-yl)methyl hydrogen sulfate pyridinium salt (phenyl-O-β-D-3′-keto-6′-sulphatoglucopyranoside pyridinium salt) in 0.1 M deuterated phosphate buffer solutions of differing pH containing 15% D6-DMSO was determined.
as §1
A stock solution of 20 mg of phenyl-O-β-D-3′-keto-6′-sulphatoglucopyranoside in 0.5 mL of D6-DMSO were prepared.
To two parallel reaction vials, where indicated in the reaction table below, was added 0.10 mL of the glycoside substrate solutions in D6-DMSO and 0.60 mL of low or high pH 0.1M phosphate buffer in D2O and the mixtures incubated by shaking at 32° C. After times indicated in table below, the mixtures where analysed by ^1H-NMR in a 400 MHz instrument.

Series [4] is described as follows: Example 15: release of carvacrol from carvacrol-O-β-D-3′-ketoglucopyranoside, 0.1 M deuterated phosphate buffer, 20% D6-DMSO, 32° C. On the procedure:
In this example the rate of release of carvacrol from ((2R,3R,5S)-3,5-dihydroxy-2-(hydroxymethyl)-6-(5-isopropyl-2-methylphenoxy)tetrahydro-4H-pyran-4-one (carvacrol-O-β-D-3′-ketoglucopyranoside) in 0.1 M deuterated phosphate buffer solutions of differing pH containing 20% D6-DMSO was determined. 0.1 M of pH 5.8 and 7.4 stock buffered solutions of sodium dihydrogen phosphate and disodium hydrogen phosphate were prepared in deuterated water (D2O).
A stock solution of 15 mg of carvacrol-O-β-D-3′ketoglucopyranoside in 1.0 mL of D6-DMSO were prepared.
To two parallel reaction vials, where indicated in the reaction table below, was added 0.20 mL of the glycoside substrate solutions in D6-DMSO and […] of low or high pH 0.1M phosphate buffer in D2O or D2O and the mixtures incubated by shaking at 32° C. After times indicated in table below, the mixtures where analysed by ^1H-NMR in a 400 MHz instrument.

Series [5] in a line: Description: alcohol release from model compounds (III), (IV) and compound (V) in buffer, water and skin washings. Conditions: 20 mg/mL mixture; after 3 d.

SMILES strings stand for the structures. Where a name gives a salt, the structure may show the parent alone.

As for `COC(=O)[C@H]1OC(OC)[C@H](O)C(=O)[C@@H]1O` (stereo in doubt) [methyl-β-3′-ketoglucuronide methyl ester, methyl (2S,3R,5S,6S)-3,5-dihydroxy-6-methoxy-4-oxotetrahydro-2H-pyran-2-carboxylate], in series [1] (32° C.), the “methanol release (in words)” value is “generates methanol at both pH 5.8 and pH 7.4”. The “% Conversion by 1H-NMR” value in series [1] (pH 5.8, 0 h) amounted to 0%; in series [1] (pH 5.8, 5 h) it was 2%; in series [1] (pH 5.8, 20 h), 7%; in series [1] (pH 5.8, 163 h (printed under the 72 h column)) it was 23%; in series [1] (pH 7.4, 0 h), 0%; in series [1] (pH 7.4, 5 h), 15%. For the same molecule, the “% Conversion by 1H-NMR” value was determined as 38% in series [1] (pH 7.4, 20 h) and 100% in series [1] (pH 7.4, 72 h).

For the molecule `CC1=CC[C@@H](C(C)(C)O[C@@H]2O[C@H](CO)[C@@H](O)C(=O)[C@H]2O)CC1` [(2R,3R,5S,6S)-3,5-dihydroxy-2-(hydroxymethyl)-6-((2-((S)-4-methylcyclohex-3-en-1-yl)propan-2-yl)oxy)tetrahydro-4H-pyran-4-one], the “pH dependence of (S)-α-terpineol release (in words)” value in series [2] (32° C.) was “only slowly degraded at pH 5.8, but releases (S)-α-terpineol at a significantly higher rate at pH 7.4”. Further, the “% Conversion by 1H-NMR” value in series [2] (pH 5.8, 0 h) worked out at 0%; in series [2] (pH 5.8, 3 h), 0%; in series [2] (pH 5.8, 20 h), 0%; in series [2] (pH 5.8, 95 h), 0%; in series [2] (pH 7.4, 0 h), 0%; in series [2] (pH 7.4, 3 h) it was 5%. Also, the “% Conversion by 1H-NMR” value was 28% in series [2] (pH 7.4, 20 h); 77% in series [2] (pH 7.4, 95 h); 85% in series [2] (pH 7.4, column head 167).

For `O=C1[C@@H](O)[C@H](Oc2ccccc2)O[C@H](COS(=O)(=O)O)[C@H]1O` [((2R,3R,5S,6S)-3,5-dihydroxy-4-oxo-6-phenoxytetrahydro-2H-pyran-2-yl)methyl hydrogen sulfate pyridinium salt], the “phenol release (in words)” value in series [3] (32° C.) is recorded as “generates phenol at pH 7.4”. For the same molecule, the “% Conversion by 1H-NMR” value in series [3] (Reaction 1, pH 5.8, 0 h) is 1%; in series [3] (Reaction 1, pH 5.8, 5 h) it was 2%; in series [3] (Reaction 1, pH 5.8, 20 h) it was 2%; in series [3] (Reaction 1, pH 5.8, 100 h) it was 2%; in series [3] (Reaction 2 (0.60 mL of pH 5.8 buffer), 0 h), 4%; in series [3] (Reaction 2 (0.60 mL of pH 5.8 buffer), 5 h) it was 15%. The “% Conversion by 1H-NMR” value was 38% in series [3] (Reaction 2 (0.60 mL of pH 5.8 buffer), 20 h) and 84% in series [3] (Reaction 2 (0.60 mL of pH 5.8 buffer), 100 h).

Consider `Cc1ccc(C(C)C)cc1O[C@@H]1O[C@H](CO)[C@@H](O)C(=O)[C@H]1O` [carvacrol-O-β-D-3′-ketoglucopyranoside, (2R,3R,5S,6S)-3,5-dihydroxy-2-(hydroxymethyl)-6-(5-isopropyl-2-methylphenoxy)tetrahydro-4H-pyran-4-one], for which the “pH dependence of carvacrol release (in words)” value in series [4] (32° C.) was “only slowly degraded at pH 5.8, but releases carvacrol at a significantly higher rate at pH 7.4”. Moreover, the “% Conversion by 1H-NMR” value in series [4] (pH 5.8, 1 h) is reported as 2%; in series [4] (pH 5.8, 5 h) it was below 5%; in series [4] (pH 5.8, 23 h) it was below 5%; in series [4] (pH 5.8, 69 h), below 5%; in series [4] (pH 7.4, 1 h) it was 8%; in series [4] (pH 7.4, 5 h), 14%. Moreover, the “% Conversion by 1H-NMR” value worked out at 83% in series [4] (pH 7.4, 23 h) and 100% in series [4] (pH 7.4, 69 h).

Take `CC(C)=CCC/C(C)=C/CO[C@@H]1O[C@H](CO)[C@@H](O)[C@H](O)[C@H]1O` [geranyl-O-β-D-glucopyranoside]: in series [5], the “aroma of geraniol on opening the stoppered reaction vessel” value is recorded as “not present”.
